From patent publication US20100123097A1, “Method for Making Carbonates and Esters” (SABIC […] IP BV, priority 2008, published 2010)

Settings: after >20 h storage time in the solvents of the table
Protocol: Suitable reaction temperatures will typically be high enough to keep the solution or melt in the liquid form and not high enough to cause loss of the species 1, 2, 3, or 5 in FIGS. 1 and 2. The reaction temperature is less than 180° C., 160° C., 140° C. […] Higher reaction temperatures may be appropriate when more sterically hindered alcohols are used as reactants if longer reaction times are not acceptable.

COC(=O)c1ccccc1OC(=O)Oc1ccccc1C(=O)OC [BMSC, bismethyl salicyl carbonate]
Stability in these solvents (MS formation): no detectable MS formation
